# In patent US10626349B2, “Cleavable surfactants” (PROMEGA CORPORATION, priority 2007, dated 2020):
# “Also recorded” adds a separate entry of the source.
# Key:
# [1] = Hydrolytic stability in 50 mM ammonium bicarbonate (reverse-phase HPLC); format: physicochemical; design: key: >>: compound 100% stable over course of experiment
# Method: Hydrolytic stability was measured by monitoring the change in retention time of the intact surfactant by reverse-phase HPLC. The ½-life is defined as the time required to reach 50% degradation.
# [2] = target: T1, Ovalbumin (albumin from chicken egg white) treated with PNGase F (Gallus gallus, UniProt P01012); experiment: Deglycosylation of ovalbumin with PNGase F (SDS-PAGE); format: biochemical; details: 0.025% surfactant, 1 hour and 20 minutes at 37° C.
# T1 construct: Ovalbumin (albumin from chicken egg white); purchased Sigma
# T1 sequence (P01012 2-386 limits assumed): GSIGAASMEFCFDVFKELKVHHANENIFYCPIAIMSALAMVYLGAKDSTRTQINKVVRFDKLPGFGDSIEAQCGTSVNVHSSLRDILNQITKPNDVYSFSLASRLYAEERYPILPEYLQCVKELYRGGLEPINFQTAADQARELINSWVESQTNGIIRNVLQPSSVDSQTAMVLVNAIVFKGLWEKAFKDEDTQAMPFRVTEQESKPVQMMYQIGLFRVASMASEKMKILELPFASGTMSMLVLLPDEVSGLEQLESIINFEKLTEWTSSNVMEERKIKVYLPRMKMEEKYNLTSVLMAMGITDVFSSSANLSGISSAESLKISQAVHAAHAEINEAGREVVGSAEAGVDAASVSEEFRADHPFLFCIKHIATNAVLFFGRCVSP
# Method: Surfactants described herein were evaluated as replacements for SDS in deglycolsylation protocols. Ovalbumin (albumin from chicken egg white) was selected as a model protein. Ovalbumin is a 44.3 kD glycoprotein with 1.4 kD carbohydrate units linked to the protein. […] Surfactant compound 3266 is acid-labile and it can be easily degraded, allowing for analysis of the protein and carbohydrate using mass spectrometric analysis.
# Ovalbumin (Sigma) (45 μg) was dissolved in 0.025% 3266/5 mM DTT/25 mM ammonium bicarbonate (pH ˜8) and incubated at 95° C. for 5 minutes. In the control reaction, 3266 was replaced with SDS. Deglycosylation was initiated by adding 1.5μ units PNGase F (Sigma). After 1 hour and 20 minutes of incubation at 37° C., the reactions were terminated by incubation at 95° C. for 5 minutes and an aliquot from each reaction was resolved with SDS-PAGE. […] The analyses indicate that compound 3266 is equivalent to the deglycosylation enhancement found using SDS, while eliminating the deleterious effects of SDS in concomitant spectrometric and chromatographic analysis.
# [3] = Acid and thermal degradation of the surfactant; details: for time to degradation in 0.5% TFA: 0.1% solution for 3220 and 3266
# [4] = Solubility of the surfactant; details: for solubility (concentration dissolved to): in 50 mM ammonium bicarbonate; for solubility in aqueous solutions (concentration dissolved to): aqueous solution
# [5] = target: T2, Myoglobin from horse heart digested with trypsin (Equus caballus, UniProt P68082); experiment: Myoglobin/Trypsin digest, HPLC peak area versus RapiGest control; format: biochemical; details: 0.01% surfactant, trypsin 50:1, 20 minutes at 37° C.; ratio to RapiGest control, >1 = more digestion
# T2 construct: Myoglobin from horse heart; from tissue; host or cells: horse heart
# T2 sequence (P68082 2-154 limits assumed): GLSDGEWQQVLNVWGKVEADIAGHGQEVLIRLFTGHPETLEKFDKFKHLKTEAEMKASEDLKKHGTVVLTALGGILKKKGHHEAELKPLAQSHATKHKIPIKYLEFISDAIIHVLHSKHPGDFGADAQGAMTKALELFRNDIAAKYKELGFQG
# Method: Myoglobin from horse heart (typically 25 μs) was digested with trypsin (Promega) at a 50:1 ratio in a volume of 125 μL (typical) of 50 mM Ammonium bicarbonate for 20 minutes at 37° C. with 0.01% RapiGest™ surfactant or 0.01% of the indicated compound of the invention (upper and lower chromatograms, respectively). TFA was added to 0.5-2% and the mixtures were incubated at 37° C. or 65° C. for 20 or 30 minutes. Degraded surfactant was removed by centrifugation at 14,000×g for 5 minutes. HPLC analysis was performed on a 25-50 μL reaction sample using an HP1050 LC system with an Agilent Sorbax SB-C18 column (3.0×100 mm, 3.5 micron) and a gradient of 0.1% TFA (97.5% initial) and Acetonitrile, 0.01% TFA (55% final condition followed by a 100% wash step) and a flow rate of 0.75 mL/min. Peptides were detected at 214 and 280 nm.
# (§1) For each compound numbered below in Example 12, the rate of enhanced digestion was determined from the ratio of the surfactant peak area (surfactant # Pk. Area) to the Rapigest™ surfactant peak area (RG Pk area). Peak area was determined as the sum of all peaks integrated from 8-22 minutes.
# [6] = target: T3, Bacteriorhodopsin digested with chymotrypsin (Halobacterium salinarum, UniProt P02945); experiment: Bacteriorhodopsin/Chymotrypsin digest, HPLC peak area versus RapiGest control; format: biochemical; details: at 0.1% surfactant, BR boiled with surfactant, chymotrypsin 10:1
# T3 sequence (P02945 14-261 limits assumed): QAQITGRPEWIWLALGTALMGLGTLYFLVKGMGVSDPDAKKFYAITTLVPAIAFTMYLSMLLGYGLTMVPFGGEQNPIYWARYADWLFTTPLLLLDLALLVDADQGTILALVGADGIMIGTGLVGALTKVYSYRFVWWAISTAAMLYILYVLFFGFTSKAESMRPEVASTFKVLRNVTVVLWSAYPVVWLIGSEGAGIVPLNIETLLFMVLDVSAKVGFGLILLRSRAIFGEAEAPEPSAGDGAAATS
# [7] = target: Horse myoglobin digested with trypsin (Equus caballus, UniProt P68082); experiment: One hour digestion of myoglobin with trypsin (HPLC); format: biochemical; details: for digestion of myoglobin in one hour (in words): trypsin, 3116: 0.01%, 50:1, one hour at 37° C.
# Horse myoglobin digested with trypsin, sequence (P68082 2-154 limits assumed): as the sequence (P68082 2-154 limits assumed) above
# Method: For example, digestion of myoglobin using standard protocol requires overnight digestion. […] Horse myoglobin was digested with trypsin at a 50:1 ratio for one hour at 37° C., alone and separately in the presence of 0.01% compound 3116.
# The peaks in FIG. 3A and FIG. 3B indicate peptides or partial digestion fragments.
# [8] = Stability and degradation profile of surfactant 3211 solutions; format: physicochemical
# Method: FIG. 1 illustrates the degradation profile of a 0.025% solution of surfactant 3211 at 40° C., according to one embodiment.
# For example, degradation of surfactant compound 3211 after protein digestion is not required because the surfactant degrades during the digestion process. The stability of a 1% solution of 3211 (10% degradation) is 8 hours at 23° C., 12 days at 4° C., and an estimated >3 years at −20° C. However, the degradation rate of surfactant 3211 increases in a typical protein digestion protocol. […] Less than about 5% of intact surfactant remains after only 2 hours.
# [9] = target: T4, beta subunit of mouse ATP synthase (Mus musculus, UniProt P56480); experiment: In-gel trypsin digestion of 56 kD band of mouse heart membrane protein, mass spectrometry; format: biochemical
# T4 construct: Total membrane protein from mouse heart was resolved in SDS-polyacrylamide gel; from tissue; host or cells: mouse heart, total membrane protein, 56 kD SDS-PAGE band
# T4 sequence (P56480 47-529): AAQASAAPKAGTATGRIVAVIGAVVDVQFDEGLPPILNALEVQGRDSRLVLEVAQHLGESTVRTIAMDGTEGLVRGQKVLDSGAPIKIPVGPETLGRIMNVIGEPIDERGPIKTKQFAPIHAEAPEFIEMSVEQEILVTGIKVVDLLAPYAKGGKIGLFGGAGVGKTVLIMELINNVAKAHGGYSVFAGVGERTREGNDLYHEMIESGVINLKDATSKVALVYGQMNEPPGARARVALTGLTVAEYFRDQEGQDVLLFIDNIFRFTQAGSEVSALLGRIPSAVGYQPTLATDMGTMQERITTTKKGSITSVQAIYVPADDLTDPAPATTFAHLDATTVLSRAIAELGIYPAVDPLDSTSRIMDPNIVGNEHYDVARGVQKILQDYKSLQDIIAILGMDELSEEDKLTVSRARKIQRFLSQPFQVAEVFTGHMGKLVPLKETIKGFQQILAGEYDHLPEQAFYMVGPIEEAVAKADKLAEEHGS
# Method: 13. Rehydrate for 5 minutes in 20 μL 12 ng/μL Trypsin Gold (in 0.025% surfactant A/50 mM […] AmBic). Overlay with 30 μL of 0.01% surfactant A/50 mM AmBic to cover gel pieces. Incubate 1 hour at 50° C.
# Total membrane protein from mouse heart was resolved in SDS-polyacrylamide gel and a single protein band was digested with a conventional digestion protocol (control) and separately with a compound 3211-assisted protocol.
# A band of the protein with an approximate MW of 56 kD was excised and digested with trypsin. The digested samples were analyzed by mass spectrometry. […] Asterisks indicate identified peptides for beta subunit of mouse ATP synthase (the major protein in 56 kD band).
# [10] = target: T3, Bacteriorhodopsin digested with chymotrypsin; experiment: Bacteriorhodopsin/Chymotrypsin digest, HPLC peak area versus RapiGest control; format: biochemical; details: 0.025% surfactant
# Method: Bacteriorhodopsin (25 μs) was heated with 0.025% Rapigest™ surfactant or the indicated compound of the invention for 5 minutes at 95° C., then digested with chymotrypsin (Sigma) at a 10:1 ratio in 125 μL 50 mM Ammonium bicarbonate for 1 hour at 37° C. After one hour TFA was added to 0.5-2% and the mixtures were incubated at 37° C. or 65° C. for 20 or 30 minutes. Degraded surfactant was removed by centrifugation at 14,000×g for 5 minutes. An aliquot of 50-100 μL of digested protein was analyzed by HPLC as described above.
# Compound 3211, 3212, 3224 and Rapigest™ surfactant control for FIG. 13C reactions: Bacteriorhodopsin (25 μs) was solubilized with 0.025% compound of interest for 1-2 minutes at room temperature, then digested with chymotrypsin (Sigma) at a 10:1 ratio in 125 μL 50 mM Ammonium bicarbonate for 1 hour at 37° C. After one hour TFA was added to 0.5-2% and the mixtures were incubated at 37° C. or 65° C. for 20 or 30 minutes. Degraded surfactant was removed by centrifugation at 14,000×g for 5 minutes. An aliquot of 50-100 μL of digested protein was analyzed by HPLC as described above.
# as §1
# trypsin = trypsin (Sus scrofa, UniProt P00761); experiment: Trypsin activity measured as rate of BAEE cleavage; format: biochemical; details: standard digestion conditions
# trypsin, sequence (P00761 9-231): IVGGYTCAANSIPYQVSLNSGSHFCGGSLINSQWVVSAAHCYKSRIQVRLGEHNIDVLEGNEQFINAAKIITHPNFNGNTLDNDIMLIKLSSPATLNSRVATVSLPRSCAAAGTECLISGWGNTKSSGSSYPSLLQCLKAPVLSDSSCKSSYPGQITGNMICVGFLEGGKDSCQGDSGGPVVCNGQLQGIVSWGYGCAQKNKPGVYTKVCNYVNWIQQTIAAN
# From the text: Compound 3116 can be used as an acid-labile surfactant to facilitate the solubilization and denaturation of a protein or peptide. Compound 3116 stabilizes proteases and enhances the proteolysis activity of trypsin. See FIG. 2, which illustrates the effect of compound 3116 on trypsin activity.
# [11] = surfactant conc. 0.025% in 50 mM ammonium bicarbonate
# [12] = surfactant conc. 1% in 50 mM ammonium bicarbonate
# [13] = 1 hour in-gel digestion with surfactant
smiles,measurement,setting,value
CCCCCCCCCCCCC(OC(=O)NCCCS(=O)(=O)O)c1ccc(OC)c(OC)c1 (stereo not drawn) [Compound 3266],½-life,[1]; [11],>>
same,½-life,[1]; surfactant conc. 0.25% in 50 mM ammonium bicarbonate,>>
same,½-life,[1]; [12],>>
same,deglycosylation of ovalbumin by PNGase F (in words),[2],rapidly removed carbohydrate from ovalbumin; also recorded: transformed into a deglycosylated 42.9 kD form
same,time to degradation in 0.5% TFA,[3]; 37° C. where stated,≤ 30 min
same,thermolability (in words),[3]; 3266: 5 minutes at 95° C.,not thermolabile
same,solubility (concentration dissolved to),[4],2%
same,"surfactant Pk area/RG Pk area, Myoglobin/Trypsin digest",[5],1.2
CCCCCCCCCCOc1ccc(C(OCCc2ccc(N(CCCCS(=O)(=O)[O-])CCCCS(=O)(=O)[O-])cc2)(c2ccccc2)c2ccccc2)cc1.[Na+].[Na+] [Compound 3214],"surfactant Pk area/RG Pk area, Bacteriorhodopsin/Chymotrypsin digest",[6],0.6
same,solubility in aqueous solutions (concentration dissolved to),[4],1%
CCCCCCCCCCC(OC(=O)NCCCS(=O)(=O)O)c1ccco1 (stereo not drawn) [Compound 3211],½-life,[1]; 0.025%/20% AcN,6 h
same,½-life,[1]; 0.025%/40% AcN,52 h
same,½-life,[1]; 0.025%/60% AcN,>100 h
same,½-life,[1]; 0.025%/80% AcN,>>
same,½-life,[1]; 1%/50% AcN,>100 h
same,½-life,[1]; surfactant conc. 0.0025% in 50 mM ammonium bicarbonate,0.5 h
same,½-life,[1]; [11],1.1 h
same,½-life,[1]; surfactant conc. 0.10% in 50 mM ammonium bicarbonate,4.8 h
same,½-life,[1]; [12],21 h
same,digestion of myoglobin in one hour (in words),[7],complete digestion
same,intact surfactant remaining,"[8]; 0.025% solution at 40° C., after 2 hours",Less than 5%
same,stability of a 1% solution (10% degradation),"[8]; 1% solution, 4° C.",12 days
same,stability of a 1% solution (10% degradation),"[8]; 1% solution, 23° C.",0.33 days
same,"stability of a 1% solution (10% degradation), estimated","[8]; 1% solution, −20° C.",> 3 years
same,increase in sequence coverage versus protocol without surfactant,[9],50%
same,MASCOT score for beta subunit of ATP synthase,[9]; [13],920
same,sequence coverage for beta subunit of ATP synthase,[9]; [13],75%
same,"surfactant Pk area/RG Pk area, Bacteriorhodopsin/Chymotrypsin digest","[10]; BR solubilized at room temperature (not boiled), RapiGest control boiled",0.9
same,time to degradation in 0.5% TFA,[3]; 37° C. where stated,15 min
same,time to degradation by boiling without TFA,[3]; boiling without TFA,5 min
same,degradation at room temperature (in words),[3]; room temperature,degrades even at room temperature at a substantial rate
same,solubility (concentration dissolved to),[4],1%
same,"surfactant Pk area/RG Pk area, Myoglobin/Trypsin digest",[5],1.3
"CCCCCCCCCCCCOS(=O)(=O)[O-].[Na+] [SDS, sodium dodecyl sulfate, reference compound]",deglycosylation of ovalbumin by PNGase F (in words),[2],transformed into a deglycosylated 42.9 kD form
same,effect on trypsin activity (in words),trypsin,inhibited trypsin activity within 30 minutes
CCCCCCCCCCCC(C)(C)OC(=O)NCCCS(=O)(=O)O [Compound 3116],identifiable peaks in HPLC chromatogram of myoglobin digest,"[7]; 0.01% 3116, trypsin 50:1, one hour at 37° C.",> 15
same,digestion of myoglobin in one hour (in words),[7],largely digested within one hour
same,"surfactant Pk area/RG Pk area, Bacteriorhodopsin/Chymotrypsin digest","[10]; BR heated (boiled) with surfactant 5 minutes at 95° C., chymotrypsin 10:1, 1 hour at 37° C., ratio to RapiGest control",1.5
same,time to degradation of 0.01% solution,"[3]; 0.01% solution, 37° C. where stated",≤ 2 h
same,solubility in aqueous solutions (concentration dissolved to),[4],≥ 0.5%
same,effect on trypsin activity (in words),trypsin,stabilized trypsin activity
same,"surfactant Pk area/RG Pk area, Myoglobin/Trypsin digest",[5],0.6
